According to patent US8450479B2, “3-substituted-4-oxo-3,4-dihydro-imidazo[5,1-d][1,2,3,5-tetrazine-8-carboxylic acid amides and their use” (Pharminox Limited, priority 2007, dated 2013):
Values joined by “and” are separate entries in the source; they are usually repeats but may differ in a detail not shown here. Equal values may be shown once. Read-outs that look alike come from different tables or passages of the source.

Experiments:
Assay type in all cases: cell-based
[1] = test system: MGMT+ lines SNB 19M and U373M; test: MTT assay, MGMT+ glioma lines
From the text: (§1) This assay was first described in Mosmann, T., 1983, “Rapid colorimetric assay for cellular growth and survival: Application to proliferation and cytotoxicity assays”, Journal of Immunological Methods, Vol. 65, Nos. 1-2, pp. 55-63.
(§2) Glioma cell lines, SNB19 and U373, both MGMT transfected (i.e., SNB19M and U373M) and vector controls (i.e., SNB19V and U373V); colorectal carcinoma cell lines, HCT116, HT29, and DLD1; melanoma cell line, SKMEL-28; breast cell line, MCF-7; and normal human fetal lung fibroblast cell line, MRC-5; were harvested at 60-80% confluence—during the logarithmic phase of growth.
(§3) Following harvesting, cells in suspension were gently syringed through a 23 gauge needle to obtain a near-single cell suspension. The desired cell seeding densities were used and added into 96-well plates in 180 μL culture medium if only one test compound was to be added, or 160 μL if two test compounds were to be added in combination, which were allowed to attach at 37° C. (5% CO2) overnight. For the 7 day assay, the cell seeding density for different cell lines was as follows: SNB19V, SNB19M: 650 cells/well; U373V, U373M: 650 cells/well; SNB19VR, U373VR: 650 cells/well; HCT116, DLD-1, SKMEL-28, MRC-5, MCF-7: 400 cells/well.
The two peripheral lanes were used as blank wells (cell free) and filled with 200 μL of medium in order to minimise medium evaporation from the plate. A separate time zero (T0) plate was set up alongside other plates. […]
After incubation at 37° C., 5% CO2 for 7 days (or immediately for the day 0 plate), cell viability was quantified using the MTT assay. […]
The intensity of absorbance is directly proportional to cell viability. A linear relationship exists between cell number and the amount of formazan and so the mean absorbance determined for each well of the same concentration can be used as a quantitative measure of viable cells compared to the controls. […]

Glioma U373M (MGMT+) = test: MTT assay for 7-day toxicity assay; details: Glioma U373M (MGMT+), read-out: GI50
How it was run: (§4)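 MGMT-transfected or vector-control glioma cells were seeded at 650 cells/well, attached overnight, and exposed for 7 days at 37 °C to compound at final 0.5–1000 μM. Viability was read by MTT (0.4 mg/mL, 4 h) formazan absorbance, with a day-0 plate included.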

Glioma U373V (MGMT low) = test: MTT assay for 7-day toxicity assay; details: for GI50: Glioma U373V (MGMT low), read-out: GI50
How it was run: as §4

Glioma SNB19V (MGMT−) = test: MTT assay for 7-day toxicity assay; details: Glioma SNB19V (MGMT−), read-out: GI50
How it was run: as §4

[2] = test system: Glioma SNB19VR (MGMT−) (TMZ resistant); test: MTT assay for 7-day toxicity assay; details: 168 h, Glioma SNB19VR (MGMT−, TMZ resistant); 7-day MTT; single determinations; read-out: GI50
Protocol: (§5) The cell culture techniques were carried out in a Class II microbiological safety cabinet which was swabbed with 70% IMS in distilled water before each use. Glioma cells were routinely cultured in Costar tissue culture flasks in RPMI 1640 liquid medium (containing 0.3 g/L L-glutamine and 2 g/L sodium bicarbonate) supplemented with 10% heat inactivated FBS (55-59° C.) for 1 hour to denature complement proteins which would otherwise evoke a cellular immune response resulting in cell lysis, 1% non-essential amino acids, 50 μg/mL gentamicin and 400 μg/mL G418 (vector selected reagent). Colorectal and melanoma cells were maintained in RPMI 1640 supplemented with 10% FBS. MRC-5 cells were cultured in EMEM. Cells were grown in a humidified incubator containing 5% CO2 at 37° C. Cells were sub-cultured when growth exceeded approximately 80% confluence, normally twice weekly. The medium was aspirated from the flask and approximately 0.8 mL trypsin-EDTA 1× solution added. The cells were re-incubated at 37° C. until they visibly detached from the flask. The cell suspension was then re-suspended in 5 mL medium and 0.5-1 mL of the cell suspension was transferred to a new flask (25 cm^2) with 7 mL culture medium. The cells were further incubated at 37° C. incubator. Cells were disposed after passage nearly 30 times in order to minimize phenotypic drift. New batches of cells were taken from liquid nitrogen storage by thawing rapidly (37° C. water bath) and re-suspension in a 25 cm^2 flask with 10 mL of culture medium. Two passages were allowed to resume normal growth. For long-term maintenance, viable cells at 60-80% confluence were detached by minimum amount of trypsin/EDTA and re-suspended in sterile filtered freezing medium (95% FBS, 5% DMSO), transferred to sterile cryogenic vials, and frozen overnight at −20° C. followed by −80° C. for 1-2 days and stored in liquid nitrogen for long term storage.
(§6) Most test compounds, including temozolomide, were prepared as stock solution (100 mM) in DMSO and stored at −20° C. for not more than 6 months.
as §1, §2, §3
(§7) The two peripheral lanes were used as blank wells (cell free) and filled with 200 μL of medium in order to minimise medium evaporation from the plate. A separate time zero (T0) plate was set up alongside other plates. Serial dilutions in tissue culture medium of a 100 mM stock of test compound in DMSO were prepared immediately before each assay to ten times the final concentrations required, and then 20 μL was added to each well (200 μL total media per well) to achieve final concentrations of 0.5 μM, 1 μM, 5 μM, 10 μM, 50 μM, 100 μM, 500 μM, and 1000 μM. A minimum of four wells received the same test compound concentration. […]

[3] = test system: Glioma U373VR (MGMT low) (TMZ resistant); test: MTT assay for 7-day toxicity assay; details: 168 h, Glioma U373VR (MGMT low, TMZ resistant); 7-day MTT; single determinations; read-out: GI50
Protocol: as §5, §6, §1, §2, §3, §7

[4] = test system: Normal Human Fetal Lung Fibroblast MRC-5; test: MTT assay for 7-day toxicity assay; details: Homo sapiens, MRC5, 168 h, Normal Human Fetal Lung Fibroblast MRC-5; 7-day MTT; single determinations; read-out: GI50
Protocol: as §5, §6, §1, §2, §3, §7

Glioma SNB19M (MGMT+) = test: MTT assay for 7-day toxicity assay; details: Glioma SNB19M (MGMT+), read-out: GI50
How it was run: as §4

[5] = test system: range of other cell lines (e.g., colon, melanoma); test: MTT assay, other cell lines; details: other lines (e.g., colon, melanoma)
From the text: as §1, §2, §3
(§8) The two peripheral lanes were used as blank wells (cell free) and filled with 200 μL of medium in order to minimise medium evaporation from the plate. A separate time zero (T0) plate was set up alongside other plates. Serial dilutions in tissue culture medium of a 100 mM stock of test compound in DMSO were prepared immediately before each assay to ten times the final concentrations required, and then 20 μL was added to each well (200 μL total media per well) to achieve final concentrations of 0.5 μM, 1 μM, 5 μM, 10 μM, 50 μM, 100 μM, 500 μM, and 1000 μM. A minimum of four wells received the same test compound concentration. To control wells, including those in the T0 plate, 20 μL of medium was added. Previous assays had been carried out to verify that cell viability was not affected by the amount of DMSO added into the test compound-treated wells. A separate plate treated in the same way, but free of test compound, was used as a measure of cell viability at the time of drug addition (day 0).
(§9) After incubation at 37° C., 5% CO2 for 7 days (or immediately for the day 0 plate), cell viability was quantified using the MTT assay. 50 μL of sterile filtered MIT (3-(4,5-dimethylthiazol-2-yl)-2,5-diphenyltetrazolium bromide) (2 mg/mL in phosphate buffered saline) were added to each well (final concentration 0.4 mg/mL) and the plates were re-incubated for 4 hours to allow metabolic conversion of MTT by dehydrogenases in viable cells to insoluble formazan crystals. The medium and any unconverted MTT was aspirated, 150 μL of DMSO was added to each well, and the plates were shaken on a plate shaker (Stuart Scientific 503) to ensure complete formazan solubilisation.
(§10) The intensity of absorbance is directly proportional to cell viability. A linear relationship exists between cell number and the amount of formazan and so the mean absorbance determined for each well of the same concentration can be used as a quantitative measure of viable cells compared to the controls. A graph of absorbance against drug concentration was plotted and the test compound concentration (GI50) causing 50% inhibition of control cell growth (absorbance increase from day 0) was calculated by interpolation.

[6] = test system: glioma MGMT− and MGMT+ cell lines; test: MTT assay, glioma lines as a whole; details: glioma MGMT− and MGMT+ cell lines
From the text: as §1, §2, §3, §8, §9, §10

[7] = test system: Colon HCT116 (MMR mutated); test: MTT assay for 7-day toxicity assay; details: Colon HCT116 (MMR mutated), 7-day MTT, single determinations, read-out: GI50
Protocol: as §5, §6, §1, §2, §3, §7

[8] = test system: Melanoma SKMEL-28 (MMR proficient); test: MTT assay for 7-day toxicity assay; details: Homo sapiens, SK-MEL-28, 168 h, Melanoma SKMEL-28 (MMR proficient); 7-day MTT; single determinations; read-out: GI50
Protocol: as §5, §6, §1, §2, §3, §7

[9] = test system: Colon HT29 (MMR proficient); test: MTT assay for 7-day toxicity assay; details: Homo sapiens, HT-29, 168 h, Colon HT29 (MMR proficient); 7-day MTT; single determinations; read-out: GI50
Protocol: as §5, §6, §1, §2, §3, §7

[10] = test system: Breast MCF-7 (MMR proficient); test: MTT assay for 7-day toxicity assay; details: Homo sapiens, MCF7, 168 h; Breast MCF-7 (MMR proficient); 7-day MTT; single determinations; read-out: GI50
Protocol: as §5, §6, §1, §2, §3, §7

[11] = 168 h, 7-day MTT, single determinations
[12] = 7-day MTT, single determinations

## CSCn1nnc2c(C(N)=O)ncn2c1=O [KK-001, 3-(Methylthio)methyl-8-carbamoylimidazotetrazin-4-one]
[1]
  activity compared with TMZ, in words: more active than TMZ
Glioma U373M (MGMT+); [11]
  GI50: 59 µM
Glioma U373M (MGMT+); [12]
  GI50: 54 µM
Glioma U373V (MGMT low); [11]
  GI50: 45 µM
Glioma U373V (MGMT low); [12]
  GI50: 73.4 µM
Glioma SNB19V (MGMT−); [11]
  GI50: 118 µM
Glioma SNB19V (MGMT−); [12]
  GI50: 96.5 µM

## CC[C@@H](c1ccccc1)n1nnc2c(C(N)=O)ncn2c1=O [BB-004, (S)-3-(-1-Phenylpropyl)-8-carbamoylimidazotetrazin-4-one]
[2]
  GI50: 29.1 µM
[3]
  GI50: 35.8 µM
[4]
  GI50: 189 µM
Glioma SNB19M (MGMT+); [11]
  GI50: 48.4 µM
Glioma SNB19M (MGMT+); [12]
  GI50: 60 µM
Glioma U373M (MGMT+); [11]
  GI50: 63.1 µM
Glioma U373M (MGMT+); [12]
  GI50: 99.4 µM
Glioma U373V (MGMT low); [11]
  GI50: 84.3 µM
Glioma U373V (MGMT low); [12]
  GI50: 72.8 µM
Glioma SNB19V (MGMT−); [11]
  GI50: 52.4 µM
Glioma SNB19V (MGMT−); [12]
  GI50: 65.8 µM

## CS(=O)(=O)Cn1nnc2c(C(N)=O)ncn2c1=O [UU-002, 3-Methanesulfonylmethyl-4-oxo-3,4-dihydro-imidazo[5,1-d][1,2,3,5]tetrazine-8-carboxylic acid amide]
[5]
  activity in words: surprising efficacy
Glioma SNB19M (MGMT+)
  GI50: 14.5 µM and 13.7 µM and 26.6 µM
[6]
  activity in words: surprising efficacy

## NC(=O)c1ncn2c(=O)n(CNC(=O)OCC3c4ccccc4-c4ccccc43)nnc12 [WW-001, (8-Carbamoyl-4-oxo-imidazo[5,1-d][1,2,3,5]tetrazin-3-ylmethyl)-carbamic acid 9H-fluoren-9-ylmethyl ester]
[1]
  activity compared with TMZ, in words: more active than TMZ
Glioma SNB19M (MGMT+)
  GI50: 71.2 µM and 56 µM
Glioma U373M (MGMT+)
  GI50: 50 µM and 62.5 µM
Glioma U373V (MGMT low)
  GI50: 35.8 µM and 60.1 µM
Glioma SNB19V (MGMT−)
  GI50: 64.8 µM and 67.8 µM

## CS(=O)(=O)CCn1nnc2c(C(N)=O)ncn2c1=O [UU-001, 3-(2-Methanesulfonyl-ethyl)-4-oxo-3,4-dihydro-imidazo[5,1-d][1,2,3,5]tetrazine-8-carboxylic acid amide]
[5]
  activity in words: surprising efficacy
Glioma SNB19V (MGMT−)
  GI50: 92.4 µM and 154 µM
[6]
  activity in words: surprising efficacy

## COC(=O)Cn1nnc2c(C(N)=O)ncn2c1=O [LL-003, Methyl 2-(8-carbamoyl-4-oxoimidazo[5,1-d][1,2,3,5]tetrazin-3(4H)-yl)acetate]
Glioma SNB19M (MGMT+); [11]
  GI50: 34.8 µM
Glioma SNB19M (MGMT+); [12]
  GI50: 33.5 µM
Glioma U373M (MGMT+); [11]
  GI50: 25.4 µM
Glioma U373M (MGMT+); [12]
  GI50: 33.7 µM
Glioma U373V (MGMT low); [11]
  GI50: 9.6 µM
Glioma U373V (MGMT low); [12]
  GI50: 11.6 µM
Glioma SNB19V (MGMT−); [11]
  GI50: 21.3 µM
Glioma SNB19V (MGMT−); [12]
  GI50: 29.7 µM
[6]
  activity in words: surprising efficacy

## COc1cccc(Cn2nnc3c(C(N)=O)ncn3c2=O)c1 [AA-003, 3-(3-Methoxybenzyl)-4-oxo-3,4-dihydroimidazo[5,1-d][1,2,3, 5]tetrazine-8-carboxamide]
[7]
  GI50: 280 µM
[7]; Homo sapiens, HCT-116, 168 h
  GI50: 309 µM
[8]
  GI50: 422 µM
[9]
  GI50: 345 µM
[10]
  GI50: 316 µM

## CCC(Cn1nnc2c(C(N)=O)ncn2c1=O)=NOC [XX-001, 3-(2-Methoxyimino-butyl)-4-oxo-3,4-dihydro-imidazo[5,1-d][1,2,3,5]tetrazine-8-carboxylic acid amide]
[1]
  activity compared with TMZ, in words: more active than TMZ
Glioma SNB19M (MGMT+)
  GI50: 47.2 µM and 47.9 µM
Glioma U373V (MGMT low)
  GI50: 18.5 µM and 10.6 µM
Glioma U373V (MGMT low); MGMT− glioma cell line U373V
  activity compared with TMZ, in words: enhanced activity
